In PMC5591244, “Novel selective, potent naphthyl TRPM8 antagonists identified through a combined ligand- and structure-based virtual screening approach” (Scientific Reports, 2017):
Entries after “also recorded” stand apart in the source; their conditions may differ.

Tests used:
TRPM8 I746A = biological target: T1, TRPM8 I746A (Homo sapiens, UniProt Q7Z2W7, I746A); test: Calcium mobilization on transiently transfected TRPM8 I746A mutant; format: cell-based; settings: icilin at EC80, I746A; read-out: pIC50, inhibition of icilin activation, I746A (converted)
T1 construct: expressed in transfected cells; host or cells: HEK-293, transient (Lipofectamine 2000)
T1 sequence (Q7Z2W7 whole entry I746A): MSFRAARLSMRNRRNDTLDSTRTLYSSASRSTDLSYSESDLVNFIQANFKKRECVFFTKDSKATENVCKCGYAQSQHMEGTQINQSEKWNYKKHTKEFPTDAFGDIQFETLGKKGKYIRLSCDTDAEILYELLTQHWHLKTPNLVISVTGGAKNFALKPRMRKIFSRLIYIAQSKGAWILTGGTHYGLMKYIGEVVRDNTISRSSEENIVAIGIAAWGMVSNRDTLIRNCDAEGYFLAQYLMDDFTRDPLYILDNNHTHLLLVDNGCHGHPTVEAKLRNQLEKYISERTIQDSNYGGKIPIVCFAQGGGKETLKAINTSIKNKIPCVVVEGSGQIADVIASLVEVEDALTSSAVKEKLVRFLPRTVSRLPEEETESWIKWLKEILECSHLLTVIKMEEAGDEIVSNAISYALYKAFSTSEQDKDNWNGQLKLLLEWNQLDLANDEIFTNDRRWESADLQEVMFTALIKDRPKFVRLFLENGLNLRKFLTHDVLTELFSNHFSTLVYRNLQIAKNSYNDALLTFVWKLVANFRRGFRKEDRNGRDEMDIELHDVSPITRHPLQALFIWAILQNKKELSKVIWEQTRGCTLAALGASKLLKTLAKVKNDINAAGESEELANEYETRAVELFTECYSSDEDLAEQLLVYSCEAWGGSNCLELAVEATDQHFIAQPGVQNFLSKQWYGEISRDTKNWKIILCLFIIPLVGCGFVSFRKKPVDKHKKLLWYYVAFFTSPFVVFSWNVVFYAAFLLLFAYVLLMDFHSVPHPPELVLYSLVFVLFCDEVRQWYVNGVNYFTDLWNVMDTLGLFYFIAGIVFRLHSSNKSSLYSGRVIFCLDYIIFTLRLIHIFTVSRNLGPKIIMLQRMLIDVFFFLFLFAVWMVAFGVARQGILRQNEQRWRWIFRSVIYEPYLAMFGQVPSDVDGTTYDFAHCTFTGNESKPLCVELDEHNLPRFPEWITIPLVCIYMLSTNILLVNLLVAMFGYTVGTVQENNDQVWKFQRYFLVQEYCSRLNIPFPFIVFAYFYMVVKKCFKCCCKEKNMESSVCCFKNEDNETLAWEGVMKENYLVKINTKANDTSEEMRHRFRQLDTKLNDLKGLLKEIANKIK
From the text: Single point mutations were introduced in the hTRPM8-coding sequence, and the mutated TRPM8 was cloned as N-terminal c-myc tagged version into the pcDNA3 expression vector. This was done in that way that the single variations could be easily swapped from the myc-tagged expression construct into the non-tagged TRPM8 wild type expression construct.
The list of the variants is the following: variant 1, t2233g, a2234c (=Y745A); variant 2, a2236g, t2237c (=I746A); variant 3, a2395g, a2396c (=N799A) and variant 4, a2405c (D802A). The cloning project comprised three steps. First of all, a unique XhoI restriction site was inserted by site-directed mutagenesis (SDM) using DNA of the pcDNA3_TRPM8 construct as template. The 0.6 kb DNA fragment between the unique 5′ XhoI (introduced) and 3′ BamHI (already present) restriction sites comprised all positions of the four single point mutations and could be later used for their insertion as well as swapping between myc-tagged and non-tagged TRPM8 versions. In a second step, the c-myc tag sequence was introduced embedded within the TRPM8 coding sequence by PCR primers in two partially overlapping PCRs that were then joined by bridge PCR with the external 5′KpnI and internal 3′EcoRI primers and in the last step the point mutations 1 to 4 were inserted into pcDNA3_c-myc-TRPM8 by exchanging the wild type 5′XhoI-3′BamHI fragment (0.6 kb) with each of the corresponding variation fragment derived from synthetic DNA (provided by GeneArt, ThermoFisher Scientific).The myc-tagged constructs were transiently transfected in HEK-293 cells with Lipofectamine 2000 (Invitrogen) according to the manufacturer’s protocol. The pcDNA vectors containing the wt myc-tagged TRPM8 gene and the empty pcDNA3 (mock) were separately transfected into HEK-293 cells as controls. Cells were transfected and seeded on the same day at 17,500 cells/well in poly-D-lysine-coated 384-well plates (MATRIX #4332-CPL). Twenty-four hours after seeding, the activity of transfected TRPM8 receptors was tested using the calcium mobilization assay as described above. The analysis was performed on the basis of ΔF/F° (normalized MAX-MIN), where ΔF is the MAX between time points 117 and 182 minus the MIN between time points TP114 and TP116, and F° is the basal signal at time point TP0. The obtained data from at least four wells (as replicates) were analyzed with GraphPad PRISM® software (version 5, GraphPad Software Inc.) to calculate the mean and standard error of the mean[58], to create sigmoidal concentration-response curves and to calculate IC50 values.

TRPM8 = biological target: T2, TRPM8 (Homo sapiens, UniProt Q7Z2W7); test: Manual patch clamp (whole-cell voltage clamp); format: cell-based; settings: Cooling agent 10 50 μM, +40 mV, compound 1 300 nM
T2 construct: expressed in transfected cells
T2 sequence (Q7Z2W7 whole entry): as the sequence (Q7Z2W7 whole entry I746A) above, with A746I counted along it
Description: Sixteen hours before an experiment, cells were seeded onto poly-D-lysine-coated glass slides (150,000 cells each) and placed in 6-well plates in antibiotic-free medium. Immediately before experiments, the coated glass slides with seeded cells were washed five times with patch-clamp extracellular solution (145 mM NaCl, 10 mM EGTA, 10 mM HEPES, 10 mM Glucose, pH 7.4 with NaOH) and then placed into the recording chamber.
The electrophysiology study involved a whole-cell voltage clamp and intracellular solution consisting of 128 mM CsCl, 10 mM EGTA, 0.7 mM CaCl2, 3 mM MgCl2, 10 mM HEPES, and 5 mM Na2ATP at pH 7.2 with CsOH. For the pulse protocols, cells were held at +40 mV, and outward currents were acquired in uninterrupted recording mode. Data were recorded in standard whole-cell voltage experiments performed at room temperature. For data acquisition and further analysis, an EPC10 digitally controlled amplifier was utilized in combination with PATCHMASTER software (HEKA Electronics, Lambrect, Germany). The EPC10 provides automatic subtraction of capacitive currents by means of the prepulse. The data were filtered at 2.9 KHz (−3 dB, 4-pole Bessel lowpass) and digitized at 100 µs per point. […] Outward currents elicited by the addition of 50 μM cooling agent 10 or of cooling agent 10 (50 μM) plus compound 1 (300 nM) were recorded.

SMILES: Clc1c(OCCNCc2ccco2)ccc2ccccc12 [Compound 1]
- IC50 (TRPM8 I746A): 20 nM
- Effect on outward current (TRPM8): completely abrogated electrical impulse transmission; also recorded: almost completely blocked
